In patent US8999964B2, “TGR5 modulators and methods of use thereof” (Intercept Pharmaceuticals, Inc., priority 2008, dated 2015):
Where a name gives a salt, the structure may show the parent alone.

Assays:
PPARδ = biological target: T1, PPARδ (Homo sapiens, UniProt Q03181); test: PPARδ activation, NR selectivity assay; settings: Table 6
T1 sequence (Q03181 211-439 limits assumed): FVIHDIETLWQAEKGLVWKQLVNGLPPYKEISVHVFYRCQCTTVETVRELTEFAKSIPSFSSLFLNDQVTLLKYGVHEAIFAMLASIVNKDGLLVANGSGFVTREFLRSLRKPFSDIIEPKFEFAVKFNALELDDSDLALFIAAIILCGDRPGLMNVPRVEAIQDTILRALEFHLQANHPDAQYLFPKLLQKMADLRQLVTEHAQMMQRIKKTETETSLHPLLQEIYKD

hFXR = biological target: T2, hFXR (Homo sapiens, UniProt Q96RI1); test: Alphascreen coactivator recruitment assay on FXR
T2 sequence (Q96RI1 262-486 limits assumed): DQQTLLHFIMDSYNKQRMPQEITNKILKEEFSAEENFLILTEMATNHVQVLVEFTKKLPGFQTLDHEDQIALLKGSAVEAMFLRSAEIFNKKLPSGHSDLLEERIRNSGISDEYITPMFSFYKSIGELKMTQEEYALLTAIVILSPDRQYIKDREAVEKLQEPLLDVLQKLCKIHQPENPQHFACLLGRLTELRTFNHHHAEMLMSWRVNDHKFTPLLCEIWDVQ
Procedure: Activity on FXR was assayed by using Alphascreen technology in a coactivator recruitment assay. AlphaScreen is a bead-based chemistry assay used to study biomolecular interactions. Binding of molecules captured on the beads leads to an energy transfer from one bead to the other, ultimately producing a luminescent signal. When the partners interact, chemical energy is transferred from Donor to Acceptor beads and a signal is produced. Upon bile acids stimulation the GST-FXR-LBD interacts with the Src-1 peptide. Anti-GST-coated Acceptor beads were used to capture the GST-fusion FXR-LBD whereas the biotinylated-SRC-1 peptide was captured by the streptavidin Donor beads. Upon illumination at 680 nm chemical energy is transferred from Donor to Acceptor beads across the complex streptavidin-Donor/Src-1-Biotin/GSTFXR-LBD/Anti-GST-Acceptor and a signal is produced. The assay was performed in white, low-volume, 384-well Optiplates (PerkinElmer) using a final volume of 25 μl containing final concentrations of 10 nM of purified GST-tagged FXR-LBD protein, 30 nM biotinylated Src-1 peptide, 20 μg/ml anti-GST acceptor beads acceptor beads and 10 μg/ml of streptavidin donor bead (PerkinElmer). […] After the addition of the detection mix (acceptor and donor beads), the plates were incubated in the dark for 4 h at room temperature and then were read with an Envision microplate analyzer (PerkinElmer). […]

hTGR5 = biological target: T3, hTGR5 (Homo sapiens, UniProt Q8TDU6); test: cell-based; design: Human intestinal cell lines (NCI-H716) were plated in 96-well plates; endogenous in cells; settings: Table 1; CRE-Luc reporter, HEK293T; read-out: Transactivation Assay hTGR5 EC50
T3 sequence (Q8TDU6 1-330): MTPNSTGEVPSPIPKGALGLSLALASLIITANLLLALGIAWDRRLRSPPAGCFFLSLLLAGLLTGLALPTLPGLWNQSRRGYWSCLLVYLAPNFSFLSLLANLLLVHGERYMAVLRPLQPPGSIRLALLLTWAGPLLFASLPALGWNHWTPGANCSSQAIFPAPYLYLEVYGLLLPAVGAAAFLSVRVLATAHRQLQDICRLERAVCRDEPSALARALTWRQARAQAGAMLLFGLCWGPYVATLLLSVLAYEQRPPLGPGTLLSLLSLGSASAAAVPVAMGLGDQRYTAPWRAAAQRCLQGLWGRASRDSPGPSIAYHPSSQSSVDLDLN
Procedure: HEPG2 and HEK293T cells were cultured in E-MEM and DMEM respectively, either supplemented with 1% penicillin/streptomycin, 1% L-glutamine and 10% fetal bovine serum. […] Cells were grown at 37° C. in 5% CO2. All the transfections were made using 5:2 Fugene HD Trasfection reagent (μl) to DNA (μg) respectively (Roche). […] Transient transfections were performed using 100 ng of reporter vector pGL4.29[luc2P/CRE/Hygro] […] The pGEM vector was added to normalize the amounts of DNA transfected in each assay (2 μg). […] The cells were then lysed by adding 75 μl of Dual-Glo Luciferase Reagent (Promega) to 75 μl of medium containing cells/well. Renilla luciferase activity was measured by adding volume:volume of Dual-Glo Stop & Glo reagent and original culture medium. Luciferase activities were expressed as ratio between luciferase unit and renilla luciferase unit. Each data point is the average of triplicate assays. Each experiment was repeated at least three times.
After subtracting the average value of the basal (vehicle-treated) condition, values were applied to EC50 and/or efficacy determinations. Calculation of average EC50 and comparison of the EC50 between different compounds were done after transformation to logarithms.

[1] = Bile fistula rat, duodenal (id) infusion: bile flow, biliary secretion, metabolism; settings: for Intestinal absorption: biliary secretion id versus iv; for Conc. in bile: rat bile; for Secretion (biliary): rat
VDR = biological target: T4, VDR (Homo sapiens, UniProt P11473); test: VDR activation, NR selectivity assay; assay type: biochemical; settings: Table 6
T4 construct: purchased Invitrogen
T4 sequence (P11473 127-423 limits assumed): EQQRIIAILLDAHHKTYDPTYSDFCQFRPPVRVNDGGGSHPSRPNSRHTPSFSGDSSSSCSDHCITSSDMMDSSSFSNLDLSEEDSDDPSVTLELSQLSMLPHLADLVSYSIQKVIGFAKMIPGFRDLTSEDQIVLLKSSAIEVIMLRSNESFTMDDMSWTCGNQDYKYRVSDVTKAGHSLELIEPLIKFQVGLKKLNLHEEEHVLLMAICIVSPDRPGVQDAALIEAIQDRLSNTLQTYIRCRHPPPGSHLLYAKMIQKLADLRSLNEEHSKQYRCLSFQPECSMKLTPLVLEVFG

LXRα = biological target: T5, LXRα (Homo sapiens, UniProt Q13133); test: LXR coactivator recruitment (Alphascreen); assay type: biochemical; settings: Table 6
T5 sequence (Q13133 1-447): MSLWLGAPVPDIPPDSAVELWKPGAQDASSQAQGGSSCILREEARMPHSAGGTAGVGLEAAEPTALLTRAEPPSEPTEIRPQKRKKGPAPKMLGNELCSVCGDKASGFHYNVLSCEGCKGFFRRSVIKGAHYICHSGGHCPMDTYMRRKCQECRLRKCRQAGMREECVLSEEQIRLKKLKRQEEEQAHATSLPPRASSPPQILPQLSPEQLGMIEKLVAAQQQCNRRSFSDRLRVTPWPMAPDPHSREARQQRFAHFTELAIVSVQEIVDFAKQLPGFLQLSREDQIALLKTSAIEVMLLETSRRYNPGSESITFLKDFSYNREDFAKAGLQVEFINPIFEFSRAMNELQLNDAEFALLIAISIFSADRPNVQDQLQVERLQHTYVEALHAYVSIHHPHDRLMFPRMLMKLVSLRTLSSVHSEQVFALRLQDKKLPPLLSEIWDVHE

bovine serum albumin = bovine serum albumin (Bos taurus, UniProt P02769); test: Albumin binding by equilibrium dialysis; assay type: in vitro ADME; design: 5% bovine serum albumin-saline solution (pH 7.2); from tissue; host or cells: bovine serum (by the name of the product); settings: 100 μM BA in 5% bovine serum albumin-saline, pH 7.2
bovine serum albumin, sequence (P02769 25-607): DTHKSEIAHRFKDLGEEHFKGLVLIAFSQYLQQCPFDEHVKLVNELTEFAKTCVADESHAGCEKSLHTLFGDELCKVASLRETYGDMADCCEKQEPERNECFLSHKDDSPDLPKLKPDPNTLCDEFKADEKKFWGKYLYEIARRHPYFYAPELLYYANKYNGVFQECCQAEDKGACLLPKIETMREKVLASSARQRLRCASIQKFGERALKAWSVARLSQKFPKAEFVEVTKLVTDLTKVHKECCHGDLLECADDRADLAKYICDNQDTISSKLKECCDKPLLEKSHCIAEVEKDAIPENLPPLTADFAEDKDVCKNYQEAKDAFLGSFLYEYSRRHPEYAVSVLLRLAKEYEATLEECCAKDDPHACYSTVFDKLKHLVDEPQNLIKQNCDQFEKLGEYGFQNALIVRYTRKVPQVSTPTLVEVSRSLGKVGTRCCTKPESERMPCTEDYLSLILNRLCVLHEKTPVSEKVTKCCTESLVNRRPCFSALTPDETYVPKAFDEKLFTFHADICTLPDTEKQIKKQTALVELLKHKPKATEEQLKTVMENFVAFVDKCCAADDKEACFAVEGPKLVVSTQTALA
Procedure: The extent of albumin binding was evaluated by equilibrium dialysis at a fixed BA-albumin ratio. Each BA was dissolved at a concentration of 100 μM in 5% bovine serum albumin-saline solution (pH 7.2) and left to stand for 24 h at 25° C. Two milliliters of this solution was dialyzed in cellulose sacs having a molecular weight cut-off of 12,000-14,000 Dalton against 25 ml of saline solution. The system was equilibrated by gently shaking for 72 h at 25° C. BA concentrations of the dialyzed solution (corresponding to the free unbound fraction) and of the starting solution were determined with HPLC-ESI-MS/MS in the same conditions of the previous analysis.
The percentage of albumin binding was calculated from the initial BA concentration and from the unbound concentration in the dialyzed fraction.

[2] = duodenal infusion 1 μmol/kg/min 1 h, 90 min

CC[C@H]1[C@@H](O)[C@@H]2[C@H](CC[C@]3(C)[C@@H]([C@H](C)CCC(=O)O)[C@@H](O)C[C@@H]23)[C@@]2(C)CC[C@@H](O)C[C@@H]12 [Compound 10, 3α,7α,16β-trihydroxy-6α-ethyl-5β-cholan-24-oic acid sodium salt]
PPARδ Activation EC50 (PPARδ): No activity | EC50 (hFXR): 12 µM | EC50 (hTGR5): 0.04 µM | Metabolism, species in bile after id administration ([1]; bile fistula rat, mass spectrometry): recovered as such and mainly metabolised to form the taurine conjugates | Intestinal absorption ([1]; bile fistula rat, listed as compound 10, sodium salt): poor intestinal absorption | Intestinal absorption ([1]; bile fistula rat, sodium salt): efficient | Conc. in bile [1, 2]: 10 µM | Secretion (biliary) [1, 2]: 0.0004 µmol/kg/min | Choleretic effect (bile flow) ([1]; duodenal infusion 1 μmol/kg/min, 1 hour, bile fistula rat): not choleretic | Conc. in bile ([1]; duodenal infusion, 120 min): 70 µM | Conc. in bile ([1]; duodenal infusion, 150 min): 390 µM | Conc. in bile ([1]; duodenal infusion, 180 min): 140 µM | Conc. in bile ([1]; duodenal infusion, 210 min): 90 µM | Conc. in bile ([1]; duodenal infusion, 240 min): 30 µM | Conc. in bile ([1]; duodenal infusion, 270 min): 20 µM | Conc. in bile ([1]; duodenal infusion, 300 min): 20 µM | Secretion (biliary) ([1]; duodenal infusion, 120 min): 0.003 µmol/kg/min | Secretion (biliary) ([1]; duodenal infusion, 150 min): 0.019 µmol/kg/min | Secretion (biliary) ([1]; duodenal infusion, 180 min): 0.003 µmol/kg/min | Secretion (biliary) ([1]; duodenal infusion, 210 min): 0.004 µmol/kg/min | Secretion (biliary) ([1]; duodenal infusion, 240 min): 0.001 µmol/kg/min | Secretion (biliary) ([1]; duodenal infusion, 270 min): 0.001 µmol/kg/min | Secretion (biliary) ([1]; duodenal infusion, 300 min): 0.001 µmol/kg/min | VDR Activation EC50 (VDR): No activity | LXRα Activation EC50 (LXRα): No activity | Albumin Binding (bovine serum albumin): 83%
